Assay results reported in patent US20220281860A1, “COMPOUNDS AND METHODS OF TREATING RNA-MEDIATED DISEASES” (Arrakis Therapeutics, Inc., priority 2016, published 2022).
Counter-ions that a name gives are not always drawn.

Tests used:
[1] = system: RNA3WJ_1.0.0_5IB_3FAM (cis 3WJ with one unpaired nucleotide); assay: Thermal shift binding assay; details: RNA3WJ_1.0.0_5IB 3FAM; RNA:ligand ratios 1:1, 1:3
Excerpt: (§1) Purpose: Test binding of compounds for RNA three way junction (for example, a construct of 38 nt). Thermal shift assay based on established fluorescence quenching assay utilizing FAM as fluorescence tag and Iowa Black as quencher. Tags were attached at the 3′ and 5′ end, respectively. Stable formation of 3WJ upon compound binding would lead to quenching of the FAM fluorescence due to close proximity of the Iowa Black tag. Thermal unfolding leads to increase of fluorescence emission. Assay readout: FAM (465-510 nm) Thermal Shift.
(§2) Assay sample buffer used: 10 mM CacoK pH 7.2, 30 mM NaCl. Buffer preparation in Dnase/Rnase Free distilled water (Gibco Life Technologies).
(§3) Tool compounds provided as dry powder are prepared as 50 mM stock solution in 100% d6-DMSO. Stock solutions of 50 mM concentration in d6-DMSO are stored at RT.
(§4) Sample plate: Roche, Light Cycler480 Multiwell Plate96, white, REF 04729692001. (Dilution plate: Greiner REF 781101, PS-Microplate, 384 well, clear). Thermal Shift device: Roche, Light Cycler480.
(§5) Daily fresh (10 ml): 1 ml 100 mM CacoK pH 7.2 and 0.3 ml 1 M NaCl filled up to 10 ml with Dnase/Rnase Free distilled water.
(§6) Dilute the RNA 1:10 (final 10 μM) in Assay Buffer.
(§7) Heat up the diluted RNA up to 90° C. for 5 min (sealed Eppendorf Tube).
(§8) Cool down the RNA probe slowly to RT.
(§9) Dilute the compounds to 800 μM in DMSO (Assay: 8 μM).
(§10) 78.4 μL Assay Buffer are pipetted into Greiner REF 781101, PS-Microplate, 384 (each well needed).
(§11) Add 0.8 μL of the RNA-Solution ([…]).
(§12) Add 0.8 μL Compound-Solution ([…]).
(§13) Final concentrations in the sample: 1 μM RNA, 8 μM compound, 1% DMSO
(§14) Pipet 20 μL Sample Solution into Roche, Light Cycler480 Multiwell Plate96, white, REF 04729692001.
(§15) When sample transfer is finished, seal the plate with a clear topseal (part of REF 04729692001).
(§16) Centrifuge the plate with a table-top device to spin down the samples.
(§17) Measure the 96 plate with the LightCycler480 (Channel: 480/510 nm; Temperature: 41-91° C.).
(§18) Analyse measurement-data with the MeltingCurveGenotyping Mode.
(§19) Settings: Acquisition mode: continuous; Ramp rate: 0.1 C.°/sec; Acquisition: 6/C.° Melt Curve Genotyping for All Samples
(§20) Melting curves analysis show melting temperature (Tm) of ˜51° C. Range of RNA concentrations was tested and assay window was determined (conc. range of 0.5-1 μM yields best results). The choice of buffer also affected the Tm. RNA constructs were tested under different buffer conditions (especially in presence of salt) in the thermal shift assay. […] CacoK with 30 mM salt at 1 μM RNA conc. was used to assess compound effects on 3WJ stability. […] These conditions were used for screening test compounds.
Compounds Ark0000013 and Ark0000014 were also tested in the thermal shift assay against three RNA 3WJ constructs, A) RNA3WJ_1.0.0_5IB_3FAM (cis 3WJ with one unpaired nucleotide); B) Split3WJ.1_up_5IB+Split3WJ.1_down_3FAM (trans 3WJ as 1:1 mix); and C) Split3WJ.2_up_5IB+Split3WJ.2_down_3FAM (trans 3WJ as 1:1 mix).

RNA3WJ_3.0.0_5IB_3FAM = assay: Thermal shift binding assay; details: RNA:ligand ratios 1:1, 1:3
Excerpt: as §1, §2, §3, §4, §5, §6, §7, §8, §9, §10, §11
Add 0.8 μL Compound-Solution ([…]). […]
as §14, §15, §16, §17, §18, §19, §20

[2] = system: RNA3WJ_0.0.0_5IB_3FAM (3WJ_0.0.0_5IB_3FAM) RNA three way junction; assay: Thermal shift binding assay; details: RNA:ligand ratios 1:1, 1:3, raw and normalized data
[3] = system: RNA3WJ_0.0.0_5IB_3FAM (3WJ_0.0.0_5IB_3FAM) RNA three way junction; assay: Thermal shift binding assay; details: for Melt. Temp. with cmpd / Shift melt. Temp.: RNA sequence 3WJ_0.0.0_5IB_FAM; for Melt. Temp. with cmpd: melting temperature in presence of compound; for Shift melt. Temp.: melting temperature with cmpd minus without cmpd
Excerpt: as §1, §2, §3, §4, §5, §6, §7, §8, §9, §10, §11, §12, §13, §14, §15, §16, §17, §18, §19, §20

[4] = system: 3WJ_0.0.0_5IB_3FAM construct; assay: Fluorescence quenching binding assay; details: at conc. >5 μM, FIG. 107
Protocol: This assay will be used to test binding of compounds for RNA three way junction (such as a 38 nt construct). This is a fluorescence quenching assay utilizing FAM as fluorescence tag and Iowa Black as quencher. Tags are attached at the 3′ and 5′ end, respectively. Stable formation of MW upon compound binding would lead to quenching of the FAM fluorescence due to close proximity of the Iowa Black tag. Assay readout: FAM (485-520 nm) Fluorescence Intensity.
as §2, §3
Sample plate: Greiner cat #784076, black, 384 (Dilution plate: Greiner REF 781101, PS-Microplate, 384 well, clear). Fluorescence Intensity device: Envision 1040285
Daily fresh (10 ml): 1 ml 100 mM CacoK pH 7.2 and 0.3 ml 1 M NaCl filled up to 10 ml with Dnase/Rnase Free distilled water
as §6
Heat up the diluted RNA up to 90° C. for 5 min (sealed Eppendorf Tube). […]
Calibration of the expected fluorescence signal at various RNA concentrations in either CacoK or NaPO4 buffers was performed first. Experiments in buffers containing salt show distinct fluorescence quenching behavior. […]

[5] = RNA3WJ_0.0.0_5IB_3FAM, 1 μM RNA, 8 μM compound, 1% DMSO, 10 mM CacoK pH 7.2, 30 mM NaCl

Row | Compound | Temp. Shift [° C.] [3, 5] | Melt. Temp. with cmpd [3] [°C] | Shift melt. Temp. [3] | also measured
1 | CN(CCCN)CCCNC(=O)c1ccccc1 [Ark000039] | – | – | – | Effect in the melting curves (in words) [1]: lack of effect; Effect in the melting curves (in words) (RNA3WJ_3.0.0_5IB_3FAM): lack of effect; Effect in the melting curves (in words) [2]: no significant effect
2 | 4-((2S,4S)-4-azido-2-(methyl(12-methyl-13-oxo-15-(2,7,15-tris(8-aminooctanamido)-9,10-[1,2]benzenoanthracen-9(10H)-yl)-3,6,9-trioxa-12-azapentadecyl)carbamoyl)pyrrolidine-1-carbonyl)benzenesulfonyl fluoride [ARK000032] | +15.0 °C | 75.1 | +15.0 °C | –
3 | CN(CCOCCOCCN(C)C(=O)[C@@H]1C[C@H](N=[N+]=[N-])CN1C(=O)CCc1ccc(S(=O)(=O)F)cc1)C(=O)CCC12c3cc(NC(=O)CCCCCCCN)ccc3C(c3ccc(NC(=O)CCCCCCCN)cc31)c1ccc(NC(=O)CCCCCCCN)cc12 [ARK000028] | – | 82.3 | +22.0 °C | –
4 | C#CCCCC(=O)NC[C@H]1O[C@H](O[C@H]2[C@H](O)[C@@H](O[C@H]3O[C@H](CO)[C@@H](O)[C@H](N)[C@H]3O)[C@H](N)C[C@@H]2N)[C@H](O)[C@@H](O)[C@@H]1O [Ark000008] | – | – | – | Effect on melting temperature (in words) ([3]; 3WJ_0.0.0_5IB_3FAM RNA construct, FIG. 110): very small effect
5 | N,N′,N″-(9-(1-((2S,4S)-4-azido-1-(3-(4-(fluorosulfonyl)benzoyl)pyrrolidin-2-yl)-2,11-dimethyl-1,12-dioxo-5,8-dioxa-2,11-diazatetradecan-14-yl)-9,10-dihydro-9,10-[1,2]benzenoanthracene-2,7,15-triyl)tris(azanediyl))tris(8-aminooctanamide) [ARK000031] | +24.1 °C | 84.1 | +24.1 °C | –
6 | CC(C)(C)OC(=O)NCCCC[C@@H](NC(=O)OC(C)(C)C)C(=O)Nc1ccc2c(c1)C1(CCC(=O)NCCOCCOCCN)c3cc(NC(=O)[C@@H](CCCCNC(=O)OC(C)(C)C)NC(=O)OC(C)(C)C)ccc3C2c2ccc(NC(=O)[C@@H](CCCCNC(=O)OC(C)(C)C)NC(=O)OC(C)(C)C)cc21 [ARK000023] | – | 60.7 | +0.6 °C | –
7 | [N-]=[N+]=NC[C@H]1O[C@H](O[C@@H]2[C@@H](O)[C@H](O[C@H]3O[C@H](CN)[C@@H](O)[C@H](O)[C@H]3O)[C@@H](N)C[C@H]2N)[C@H](O)[C@@H](N)[C@@H]1O [Ark000007, 6″-Azido-kanamycin A hydrochloride salt] | ~5 °C | – | – | Concentration dependent influence on the fluorescence signal (quenching effect) [4]: increase of quenching effect; Melting temp [° C.] + cmpd [3, 5]: 65.6 °C
